Experiments:
[1] = cited from earlier work
HCT-15 = test: NCI60 cell line screen, HCT-15; assay type: cell-based; conditions: Homo sapiens; HCT-15, NCI 60 cell line screen
COLO205 = test: NCI60 cell line screen, COLO205; assay type: cell-based; conditions: Homo sapiens, COLO 205; COLO205, NCI 60 cell line screen
HCC2998 = test: NCI60 cell line screen, HCC2998; assay type: cell-based; conditions: Homo sapiens, HCC 2998; HCC2998, NCI 60 cell line screen
[2] = test system: HCT-116-luc orthotopic xenografts
Description: Orthotopic Colorectal Model. Protocol was followed per Tseng et al.'s previous study (Tseng W. et al., Vis Exp, 2007 (10): p. 484). A xenograft tumor was formed as described above using HCT116-luc cells. Once the tumor reached a size large enough for transplantation, mice were euthanized and tumor tissue was removed. The tumor was divided into 2-3 mm pieces and placed in PBS on ice. BALB/c mice were put under anesthesia, and the abdomen was prepped with a betadine solution. A laparotomy was performed in the abdomen and the cecum was exposed. The cecal wall was slightly damaged to allow cell invasion. A piece of tumor tissue was then attached to the outside of the cecum by a figure-8 stitch using a 9-O-nylon suture. The cecum is returned to the cavity and the abdomen wall is closed up using 6-0 coated vycryl sutures. A rectal thermometer monitored the internal temperature of the mice during surgery. Mouse recovery was monitored closely and mice were given Meloxicam every day for 3 days to alleviate pain along with normal saline to keep the mice hydrated. Tumor volume and cell progression was monitored using an IVIS live imaging system for evaluated total proton flux. […] CF10 was dosed 2×/week every week at 360 mg/kg (n=8 study 1; n=2 in study 2). All drugs, or vehicle (0.9% saline; n=8 study 1; n=6 study 2) were administered by i.p. injection in 200 μL volume.
Animal Imaging. Pierce D-Luciferin (Thermo Scientific) was injected subcutaneous using a 28-gauge needle 15 minutes before imaging. Mice were placed in an anesthesia chamber with 1.5% isoflurane and then transferred to the IVIS stage under 2% isoflurane using a nose cone placing the mice on their back. IVIS Lumina LT Series III machine was used for all mouse images. All images were analyzed at the end of the time experiment using the same Living Image software. A region of interest was placed on the mouse′ midsection and determined the total flux in that region. The region of interest remained identical for each mouse. Graphs were plotted as total flux per mouse for each week.
Statistical Analysis. All statistical analyses were conducted using SAS 9.4 using a mixed models approach. Baseline flux from IVIS imaging measurement, group, time and group-by-time interaction were included as fixed effects. The animals were included as random effects to account for the within animal correlation. Survival differences among treatment groups were determined using a log-rank test.
Histology Analysis. Tissues from select mice from all treatment groups were removed from animals after undergoing euthanasia by intra-cardiac administration of KCl solution. In some instances, mice were injected with luciferin ˜20 min prior to euthanasia and tissue extraction to permit IVIS imaging of extracted tissue. Tumors were weighed after removal and in instances where there was suspicion of possible metastases to liver, lung, or other organs tissue from these organs was removed and if luciferin was administered prior to euthanasia, these tissues were imaged using the IVIS system. All tissues were fixed in 10% neutral buffered formalin for 24 h followed by transfer to 70% ethanol. Following routine processing in xylene, tissues were sectioned at 4 μm and stained with Hematoxylin and Eosin and evaluated by light microscopy by a veterinary pathologist.

KM-12 = test: NCI60 cell line screen, KM-12; assay type: cell-based; conditions: Homo sapiens, KM12; KM-12, NCI 60 cell line screen
SW620 = test: NCI60 cell line screen, SW620; assay type: cell-based; conditions: Homo sapiens, SW-620; SW620, NCI 60 cell line screen
HCT-116 = test: NCI60 cell line screen, HCT-116; assay type: cell-based; conditions: Homo sapiens; HCT-116, NCI 60 cell line screen
HCT-116 cells = test: cells; conditions: Homo sapiens, HCT-116, 96 h, read-out: potency (cytotoxicity) to HCT-116 cells
Description: Cell Lines and Drugs. HCT-116 human CRC cells were supplied by GRCF Biorepository & Cell Center (Johns Hopkins University). HCT116 cells were infected with UBC-GFPLuc-LV by the Cell and Viral Vector Laboratory at Wake Forest School of Medicine to generate luciferase-expressing HCT116-luc cells. These cells also express GFP. All human CRC cell lines were maintained in Dulbecco's Modified Eagle Medium (DMEM; Lonza, Switzerland) supplemented with 10% fetal bovine serum (FBS; Sigma, St. Louis, Missouri). Cell lines were cultured in conditions of 37° C. and 5% CO2 and were confirmed negative for mycoplasma.
Cell Culture. Cells were seeded in 96-well plates at the appropriate density in 200 μL medium and incubated for 37° C. overnight for cell attachment. […] Compounds were serially-diluted in either water or DMSO (final DMSO percentage<1%) to a stock concentration, and an equal amount of drug was added to the exponentially growing cells for each tested concentration. All drugs were filtered in 0.22 μm filter before use.
Cell Viability. CellTiter-Glo (Promega, Wisconsin) was used to determine cell viability. Assays were performed according to the manufacturer's instructions. Cell viability was normalized and calculated as a relative percentage of the averaged vehicle control.

HT-29 = test: NCI60 cell line screen, HT-29; assay type: cell-based; conditions: Homo sapiens; HT-29, NCI 60 cell line screen
[3] = molecular target: T1, thymidylate synthase (TS) (Homo sapiens, UniProt P04818); test: Thymidylate synthase activity in lysates of treated HCT116 cells; assay type: cell-based; conditions: HCT-116 cells, 100 nM
T1 construct: Cell lysate aliquots (400 μg of protein) were added to the reaction buffer; endogenous in cells; host or cells: HCT116 human colorectal cancer cells
Description: Thymidylate Synthase Activity. TS activity assays were performed using well-established procedures. HCT116 cells were plated at a density of 1.0-1.5×10^6 cells in […] plates. Cells were grown overnight in DMEM media with 10% FBS to allow the cells to adhere and begin to grow. Drugs were then added to the medium and the cells were incubated for the indicated time (24 h or 48 h). Cells were then harvested in 25 mM Tris-HCl, pH 7.4 with Complete Protease Inhibitor Cocktail present (as per instructed, Roche), put through two freeze/thaw cycles, and vigorously vortexed. The lysates were centrifuged at 10,000×g for 10 min at 4° C. The supernatants were assayed for protein concentration and TS catalytic activity. TS catalytic assays were performed in a final volume of 200 μL containing freshly prepared 75 μM 5,10 methylene tetrahydrofolate in 0.5 M NaOH (Schircks Laboratories, Switzerland), 10 μM dUMP, 200,000 dpm of 3H-dUMP (Moravek Biochemicals), 100 μM 2-mercaptoethanol, and 25 mM KH2PO4, pH 7.4. Cell lysate aliquots (400 μg of protein) were added to the reaction buffer and lysis buffer was used to adjust the final volume. The reaction mixture was incubated at 37° C. for 30 min, then stopped by addition of 100 μL of ice-cold, 20% TCA. Stopped reactions were maintained 5 min on ice. […] Reactions were then centrifuged, and aliquots of the supernatant were read by scintillation counting.

HCT-116 flank tumors = test: HCT-116 flank xenograft model; conditions: 5-FU 70 mg/kg i.p. 2× per week every other week
Description: Animal Model. […] All of the animal experiments were performed on six-to-eight-week-old female BALB/c mice.
Xenograft Model. HCT116 cells (3×10^6 cells) were suspended in ice-cold PBS and mixed 1:1 with Matrigel and subcutaneously injected into the flanks of Balb/nude mice. Tumor growth and mice health were monitored daily until the tumor reached a volume of 100-200 mm^3 (about two weeks). Tumor measurements were taken using electronic digital calipers twice a week, along with mouse weight. Tumor volume (V) was calculated as V=π/6 (L×W^2). 5-FU (70 mg/kg 2×/wk every other week) or CF10 (300 mg/kg) were dosed by intraperitoneal (i.p.) injection using a 28-gauge needle. Mice requiring removal from study due to large tumor burden or weight-loss were euthanized in accord with AVMA guidelines.

T1 sequence (P04818 2-313 limits assumed): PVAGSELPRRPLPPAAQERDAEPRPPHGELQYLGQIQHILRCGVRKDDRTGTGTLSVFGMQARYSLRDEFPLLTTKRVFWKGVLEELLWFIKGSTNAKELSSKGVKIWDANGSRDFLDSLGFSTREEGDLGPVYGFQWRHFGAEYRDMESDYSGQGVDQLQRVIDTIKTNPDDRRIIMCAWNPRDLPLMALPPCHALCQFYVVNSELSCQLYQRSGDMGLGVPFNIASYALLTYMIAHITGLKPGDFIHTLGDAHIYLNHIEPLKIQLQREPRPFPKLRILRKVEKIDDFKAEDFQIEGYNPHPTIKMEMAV

For O=c1[nH]cc(F)c(=O)[nH]1 [5-FU, 5-fluorouracil], the half-life [1] is given as roughly 15 min, the GI50 (HCT-15) is given as 5.62 µM and the GI50 (COLO205) is given as 6.92 µM. For the same molecule, the GI50 (HCC2998) was 1.51 µM, the primary tumor weight ([2]; 5-FU average at week 5, CF10 one mouse at week 8) was 1.0 g and the “mice with putative metastatic tissue” value ([2]; autopsy at week 5) was 2/4. For the same molecule, the tolerability ([2]; mouse, in vivo, ip, 100 mg/kg) was “toxic”, the effect on survival ([2]; orthotopic HCT-116-luc) was “no significant effect on survival” and the median survival ([2]; orthotopic HCT-116-luc, i.p.) was 31 days. The “tumor growth (rate of change in flux, IVIS)” value ([2]; orthotopic HCT-116-luc, i.p.) was “decrease tumor growth relative to control”, the GI50 (KM-12) was 8.71 µM and the GI50 (SW620) was 28.2 µM. The GI50 (HCT-116) was 4.07 µM, the IC50 (HCT-116 cells) was 21 µM and the GI50 (HT-29) was 6.76 µM. For the same molecule, the TS enzymatic activity ([3]; 24 h) was “reduced TS activity”, the TS enzymatic activity ([3]; 48 h) was roughly 75 % control values and the “day post-treatment by which all mice required euthanasia” value (HCT-116 flank tumors) was no more than 16 days. The weight loss (HCT-116 flank tumors; CF10 300 mg/kg i.p. 2×/week) was “greater weight loss than mice in the other treatment groups”.

Source: patent publication US12319915B2, “Cytotoxic fluoropyrimidine polymers and methods of use thereof” (Wake Forest University Health Sciences, priority 2018, dated 2025)
